{"source": "patent US20230120736A1", "about": "“ANTI-CD98 ANTIBODIES AND ANTIBODY DRUG CONJUGATES” (AbbVie Inc., priority 2016, published 2023)", "key": {"[1]": {"system": "A549 human lung carcinoma xenograft", "test": "A549 FP3 xenograft tumor growth inhibition, with or without docetaxel", "type": "in vivo, mouse", "conditions": "QDx1, Ab095 8 IP, docetaxel 7.5 IV, ADC 10 mg/kg/day IP", "procedure": "(§1) The cell lines A549 and NCI-H460 were obtained from the American Type Culture Collection (ATCC, Manassas, Va.). A549 cell line was further passaged in mice as flank xenograft to improve xenograft tumor growth, resulting in the A549-FP3 line. Cells were cultured as monolayers in RPMI-1640 culture media (Invitrogen, Carlsbad, Calif.) supplemented with 10% Fetal Bovine Serum (FBS, Hyclone, Logan, Utah). To generate xenografts, 5×10^6 (A549 and NCI-H460) viable cells were inoculated subcutaneously into the right flank of immune deficient female SCID-bg mice (Charles River Laboratories, Wilmington, Mass.). The injection volume was 0.2 ml and composed of 1:1 S-MEM:Matrigel Matrigel (BD, Franklin Lakes, N.J.). Tumors were size matched at approximately 223 mm^3. […] Measurements of the length (L) and width (W) of the tumor were taken via electronic caliper and the volume was calculated according to the following equation: V=L×W^2/2. […]\n(§2) To refer to efficacy of therapeutic agents, parameters of amplitude (TGI.), durability (TGD) are used. […] Tumor growth inhibition is calculated by 100*(1−Tv/Cv) where Tv and Cv are the mean tumor volumes of the treated and control groups, respectively. […] TGD is calculated by 100*(Tt/Ct−1) where Tt and Ct are the median time periods to reach 1 cm^3 of the treated and control groups, respectively."}, "[2]": {"system": "NCI-H460 human lung carcinoma xenograft", "test": "NCI-H460 xenograft tumor growth inhibition, with or without docetaxel", "type": "in vivo, mouse", "conditions": "QDx1, Ab095 8 IP, docetaxel 7.5 IV, ADC 10 mg/kg/day IP", "procedure": "as §1, §2"}}, "data": [{"smiles": "CC(=O)O[C@@]12CO[C@@H]1C[C@H](O)[C@@]1(C)C(=O)[C@H](O)C3=C(C)[C@@H](OC(=O)[C@H](O)[C@@H](NC(=O)OC(C)(C)C)c4ccccc4)C[C@@](O)([C@@H](OC(=O)c4ccccc4)[C@H]21)C3(C)C", "note": "[Docetaxel, docetaxel, reference compound]", "values": [{"measurement": "TGD", "setting": "[1]", "value": 80, "unit": "%"}, {"measurement": "TGImax", "setting": "[1]", "value": 62, "unit": "%"}, {"measurement": "TGD", "setting": "[2]", "value": 30, "unit": "%"}, {"measurement": "TGImax", "setting": "[2]", "value": 35, "unit": "%"}]}]}
